{"source": "patent US8173668B1", "about": "(Alcon Research, Ltd., priority 2007, dated 2012)", "key": {"[1]": {"target": "T1, B2-receptors in h-TM cells (Homo sapiens, UniProt P30411)", "T1 construct": "B2-receptor proteins in h-TM, h-CM and h-NPE cells; endogenous in cells; host or cells: human trabecular meshwork (h-TM), human ciliary muscle (h-CM) and human non-pigmented ciliary epithelial (h-NPE) cells", "T1 sequence (P30411 1-391)": "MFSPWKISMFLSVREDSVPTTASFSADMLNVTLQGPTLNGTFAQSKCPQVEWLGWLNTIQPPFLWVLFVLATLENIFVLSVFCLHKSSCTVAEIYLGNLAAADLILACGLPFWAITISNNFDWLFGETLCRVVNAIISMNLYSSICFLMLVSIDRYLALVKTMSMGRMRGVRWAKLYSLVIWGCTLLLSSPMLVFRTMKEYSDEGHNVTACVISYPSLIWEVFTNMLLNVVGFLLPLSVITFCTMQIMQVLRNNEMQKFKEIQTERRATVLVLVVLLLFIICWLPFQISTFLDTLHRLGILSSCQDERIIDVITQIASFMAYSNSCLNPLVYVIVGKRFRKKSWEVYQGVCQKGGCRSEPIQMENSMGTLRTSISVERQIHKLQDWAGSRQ", "assay": "[Ca2+]i mobilization (FLIPR) in h-TM cells, agonist mode", "assay_type": "cell-based", "details": "h-TM cells, mean ± SEM", "method": "(§1) On the day of the experiment, one vial of FLIPR Calcium Assay Kit dye is re-suspended in 50 mL of a FLIPR buffer consisting of Hank's Balanced Salt Solution (HBSS), 20 mM HEPES, and 2.5 mM probenecid, pH 7.4. Cells are loaded with the calcium-sensitive dye by addition of an equal volume (50 μL) to each well of the 96-well plate and incubated with dye for 1 h at 23° C. After this time, the test compound plate and cell plate are placed in the FLIPR instrument. At the beginning of an experimental run, a signal test is performed to check the basal fluorescence signal from the dye-loaded cells and the uniformity of the signal across the plate. The basal fluorescence is adjusted between 8000-12000 counts by modifying the exposure time, the camera F-stop, or the laser power. Instrument settings for a typical assay are the following: laser power 0.3-0.6 W, camera F-stop F/2, and exposure time 0.4 sec.\n(§2) Fluorescence data are collected in real-time at 1.0 sec intervals for the first 60 secs and at 6.0 sec intervals for an additional 120 secs. […] The data are then analyzed using an automated, iterative, sigmoidal curve-fitting computer program to obtain the potency and intrinsic activities of the test agents as previously described (Sharif et al. J. Pharmacol. Exp. Ther. 286: 1094-1102, 1998; Sharif et al. Invest. Ophthalmol. Vis. Sci. 39:2562-2571, 1998; Kelly et al. J. Pharmacol. Exp. Ther. 304: 238-245, 2003). The sources of materials and reagents for such assays can be found in the references cited above."}, "[2]": {"target": "T2, B2-receptors in h-CM cells (Homo sapiens, UniProt P30411)", "T2 construct": "B2-receptor proteins in h-TM, h-CM and h-NPE cells; endogenous in cells; host or cells: human trabecular meshwork (h-TM), human ciliary muscle (h-CM) and human non-pigmented ciliary epithelial (h-NPE) cells", "T2 sequence (P30411 1-391)": "T1 sequence (P30411 1-391)", "assay": "[Ca2+]i mobilization (FLIPR) in h-CM cells, agonist mode", "assay_type": "cell-based", "details": "h-CM cells, mean ± SEM", "method": "as §1, §2"}, "[3]": {"tested_on": "conscious ocular hypertensive cynomolgus monkey eyes", "assay": "IOP response in lasered (hypertensive) eyes of conscious cynomolgus monkeys, topical ocular", "assay_type": "in vivo", "method": "Intraocular pressure (IOP) is determined with an Alcon Pneumatonometer (Alcon Laboratories, Inc., Fort Worth, Tex.) after light corneal anesthesia with 0.1% proparacaine. Right eyes are hypertensive as a result of laser trabeculoplasty. After a baseline IOP measurement, test compound is instilled in the right eyes only of 8-10 cynomolgus monkeys. Vehicle is instilled in the right eyes of 5-6 additional animals. Subsequent IOP measurements are taken at 1, 3, and 6 hours. IOP measurements are also taken on left eyes (normotensive and untreated) at each of these time points. The percent change in IOP from baseline is determined for each animal for every IOP measurement (Sharif et al. J. Ocular Pharmacol. Ther. 17: 305-317, 2001; May et al., J Pharmacol Exp Ther. 306: 301-309, 2003; Sharif et al. Invest. Ophthalmol. Vis. Res. 47: 4001-4010, 2006). Group mean and standard error of the mean (SEM) are calculated for each time point. […] In cases where the compound of invention has poor ocular bioavailability, the compound may need to be administered intracamerally or intravitreally in order to observe the IOP-lowering efficacy.\nThe IOP-lowering effect was slow to develop but significant IOP reduction was observed even 3 hours post-dosing with maximum ocular hypotension observed 16-48 hours post-dosing (Tables 6-8; FIGS. 3b-5)."}, "guinea pigs": {"tested_on": "guinea pigs", "assay": "IOP-lowering activity in guinea pigs", "assay_type": "in vivo", "text": "(§3) Some obvious drawbacks and reasons for the lack of consistent observations noted above are probably related to species differences in the effects of BK on IOP changes and on the fact that BK is a labile peptide that can easily and rapidly be inactivated by kininases and other proteases when it comes into contact with body fluids (Hall, Pharmacol. Ther., 56, 131-190, 1992). Additionally, topical ocular administration of peptides such as BK are confounded by the potential lack of or little bioavailability through the cornea to reach the anterior segment of the eye. […] This is probably related to the attainment of a relevant concentration in the aqueous humor and ciliary body when the compound was administered topical ocularly."}, "[4]": {"tested_on": "rabbits (New Zealand White and Dutch-Belted)", "assay": "IOP-lowering activity in rabbits", "assay_type": "in vivo", "text": "as §3\nIOP is determined with an applanation pneumatonometer after light corneal anesthesia with 0.1% proparacaine. After baseline IOP measurements are taken, one eye of each of 7-10 (or both eyes of 5) rabbits per compound dose is topically dosed with compound. Either the contralateral eye is dosed with vehicle or a separate group of rabbits is used for vehicle control. Subsequent IOP measurements are taken at 0.5, 1, 2, 3, and 4 hours. In cases where the compound has poor ocular bioavailability, the compound may need to be administered intracamerally or intravitreally in order to observe the IOP-lowering efficacy."}, "[5]": {"details": "read-out: Potency (EC50), [Ca2+]i mobilization"}}, "data": [{"compound": "CNC(=O)c1ccc(/C=C/C(=O)NCC(=O)N(C)c2ccc(Cl)c(COc3cccc4c(OCc5ccccn5)cc(C)nc34)c2Cl)cc1", "note": "[FR-190997]", "values": [{"measurement": "Emax", "setting": "[1]; HTM, read-out: Intrinsic Activity (Emax, % max relative to BK)", "result": 86, "unit": "%"}, {"measurement": "EC50", "setting": "[1]; [5]", "result": "167 ± 29", "unit": "nM"}, {"measurement": "Emax", "setting": "[2]; read-out: Intrinsic Activity (Emax, % max relative to BK)", "result": 63, "unit": "%"}, {"measurement": "EC50", "setting": "[2]; [5]", "result": "174 ± 21", "unit": "nM"}, {"measurement": "% Change in IOP", "setting": "[3]; Study 1, 30 μg topical ocular, Dose 1/1 hr", "result": "−4.6 ± 4.4", "unit": "%"}, {"measurement": "% Change in IOP", "setting": "[3]; Study 1, 30 μg topical ocular, Dose 1/3 hr", "result": "−16.4 ± 5.3", "unit": "%"}, {"measurement": "% Change in IOP", "setting": "[3]; Study 1, 30 μg topical ocular, Dose 1/6 hr", "result": "−34.5 ± 7.5", "unit": "%"}, {"measurement": "% Change in IOP", "setting": "[3]; Study 1, 30 μg topical ocular, Dose 2/16 hr", "result": "−51.6 ± 5.4", "unit": "%"}, {"measurement": "% Change in IOP", "setting": "[3]; Study 1, 30 μg topical ocular, Dose 2/40 hr", "result": "−35.5 ± 6.3", "unit": "%"}, {"measurement": "% Change in IOP", "setting": "[3]; Study 1, 30 μg topical ocular, Dose 2/132 hr", "result": "−3.5 ± 3.7", "unit": "%"}, {"measurement": "% Change in IOP", "setting": "[3]; Study 2, 3 μg topical ocular, Dose 1/24 hr", "result": "−25.9 ± 0.6", "unit": "%"}, {"measurement": "% Change in IOP", "setting": "[3]; Study 2, 3 μg topical ocular, Dose 1/48 hr", "result": "−19.7 ± 1.9", "unit": "%"}, {"measurement": "% Change in IOP", "setting": "[3]; Study 2, 3 μg topical ocular, Dose 1/120 hr", "result": "−7.7 ± 0.8", "unit": "%"}, {"measurement": "% Change in IOP", "setting": "[3]; Study 3, 10 μg topical ocular, Dose 1/24 hr", "result": "−27.2 ± 0.1", "unit": "%"}, {"measurement": "% Change in IOP", "setting": "[3]; Study 3, 10 μg topical ocular, Dose 1/48 hr", "result": "−32.5 ± 2.4", "unit": "%"}, {"measurement": "% Change in IOP", "setting": "[3]; Study 3, 10 μg topical ocular, Dose 1/120 hr", "result": "−9.7 ± 0.6", "unit": "%"}, {"measurement": "% Change in IOP", "setting": "[3]; Table 8 Study 1, 300 μg topical ocular, Dose 1/1 hr", "result": "2.0 ± 0.6", "unit": "%"}, {"measurement": "% Change in IOP", "setting": "[3]; Table 8 Study 1, 300 μg topical ocular, Dose 1/3 hr", "result": "−6.9 ± 2.9", "unit": "%"}, {"measurement": "% Change in IOP", "setting": "[3]; Table 8 Study 1, 300 μg topical ocular, Dose 1/6 hr", "result": "−24.8 ± 10.3", "unit": "%"}, {"measurement": "% Change in IOP", "setting": "[3]; Table 8 Study 2, 300 μg topical ocular, Dose 1/1 hr", "result": "6.7 ± 2.1", "unit": "%"}, {"measurement": "% Change in IOP", "setting": "[3]; Table 8 Study 2, 300 μg topical ocular, Dose 1/3 hr", "result": "−7.5 ± 3.1", "unit": "%"}, {"measurement": "% Change in IOP", "setting": "[3]; Table 8 Study 2, 300 μg topical ocular, Dose 1/6 hr", "result": "−15.4 ± 5.7", "unit": "%"}, {"measurement": "% Change in IOP", "setting": "[3]; Table 8 Study 3, 600 μg topical ocular, Dose 1/1 hr", "result": "−0.4 ± 0.2", "unit": "%"}, {"measurement": "% Change in IOP", "setting": "[3]; Table 8 Study 3, 600 μg topical ocular, Dose 1/3 hr", "result": "−10.6 ± 4.4", "unit": "%"}, {"measurement": "% Change in IOP", "setting": "[3]; Table 8 Study 3, 600 μg topical ocular, Dose 1/6 hr", "result": "−27.7 ± 11.3", "unit": "%"}, {"measurement": "% Change in IOP", "setting": "[3]; Table 8 Study 4, 600 μg topical ocular, Dose 1/1 hr", "result": "4.9 ± 1.6", "unit": "%"}, {"measurement": "% Change in IOP", "setting": "[3]; Table 8 Study 4, 600 μg topical ocular, Dose 1/3 hr", "result": "−4.6 ± 2.0", "unit": "%"}, {"measurement": "% Change in IOP", "setting": "[3]; Table 8 Study 4, 600 μg topical ocular, Dose 1/6 hr", "result": "−18.4 ± 6.9", "unit": "%"}, {"measurement": "% Change in IOP", "setting": "[3]; Table 8 Study 4, 600 μg topical ocular, Dose 2/16 hr", "result": "−37.9 ± 14.1", "unit": "%"}, {"measurement": "% Change in IOP", "setting": "[3]; Table 8 Study 4, 600 μg topical ocular, Dose 2/40 hr", "result": "−31.2 ± 11.7", "unit": "%"}, {"measurement": "% Change in IOP", "setting": "[3]; Table 8 Study 4, 600 μg topical ocular, Dose 2/64 hr", "result": "−16.1 ± 6.1", "unit": "%"}, {"measurement": "lowering of IOP", "setting": "[3]; topical ocular, 0.03-600 μg/eye", "result": "significant dose-dependent lowering of IOP"}, {"measurement": "ability to lower IOP", "setting": "guinea pigs", "result": "unable to lower IOP"}, {"measurement": "ability to lower IOP", "setting": "[4]", "result": "unable to lower IOP"}]}]}
